In patent EP4238581A1, “TARGETED DELIVERY OF OLIGONUCLEOTIDES INTO EUKARYOTIC CELLS USING HYBRID MALTOSE/CYCLODEXTRIN POLYPLEXES” (Technische Universität Dresden e. V., priority 2022, dated 2023):

Test system: 293T-PSCA cells
Assay: Endocytosis inhibitors and GFP transfection by scFv(AM1)-P-BAP hybrid polyplexes
Assay type: cell-based
Settings: cells transfected with scFv(AM1)-P-BAP hybrid polyplexes loaded with MC encoding GFP; inhibitor concentration not given
Description: To investigate if a receptor-mediated endocytosis contributes to uptake of scFv-P-BAP hybrid polyplexes clathrin-dependent and clathrin-independent endocytosis was blocked using chlorpromazine and filipin III.

Structure (SMILES)	fraction of GFP-positive 293T-PSCA cells
CCCCC[C@@H](O)[C@H]1C(=O)O[C@H](C)[C@@H](O)/C=C/C=C/C=C/C=C/C=C(\C)[C@@H](O)C[C@H](O)C[C@H](O)C[C@H](O)C[C@H](O)C[C@H](O)C[C@@H]1O [filipin III]	significant decrease
CN(C)CCCN1c2ccccc2Sc2ccc(Cl)cc21 [chlorpromazine]	significant decrease
